Entries after “also recorded” stand apart in the source; their conditions may differ. Values belong to the compound of their own block, whether it stands above or below them.
How the values were obtained:
[1] = RIA for serum LH, T4, triiodothyronine and testosterone of treated rats; assay type: in vivo, Brown Norway rat
Text: Male Brown Norway rats aged 3, 6, 12 (n=8 per group; 3M, 6M, and 12M, respectively), and 18 months (M) (n=32; 18M) were purchased from Harlan (Madison, Wis., United States of America). The 18M rats were divided equally into four groups (n=8 per group). Under deep inhalation anesthesia (METOFANE™; Malincroft Veterinary, Inc., Mundelein, Ill., United States of America), the four groups of 18M rats were implanted subdermally with ALZET™ mini-osmotic pumps (model 2ML4; Alza Corporation, Palo Alto, Calif., United States of America), containing saline (control), LH (24 μg/day; National Hormone and Pituitary Program, Los Angeles, Calif., United States of America), thyroxine (T4; 5 μg/day; Sigma, St. Louis, Mo., United States of America), and LH and T4 (LH+T4; two pumps, 24 […] of T4), respectively, for 4 weeks (to 19 months [19M] of age). These doses of LH (Mendis-Handagama et al., (1998) Tissue Cell 30:64-73) and thyroid hormone (Ariyaratne et al., (2000) Biol. Reprod. 63:1115-1123) were used based on previously published studies. Rats were maintained under conditions of controlled temperature (25° C.) and lighting (14 hour/10 hour light/dark cycle) and were housed individually (one rat per cage). The animals were fed with Agway PROLAB™ rat formula (Agway, Syracuse, N.Y., United States of America) and water ad libitum until they were sacrificed. The animal protocol employed (No. 488) meets the guidelines of the National Institutes of Health and was approved by the University of Tennessee Animal Care and Concerns Committee. […]
Serum LH hormone was quantified using a commercially available rat luteinizing hormone (rLH) kit (Amersham Pharmacia Biotech, Piscataway, N.J., United States of America). […]
The PC SAS software (SAS Institute Inc., Cary, N.C., United States of America) was used to analyze the data. Results are expressed as mean± standard error of the mean (SEM). […]

[2] = tested on: Leydig cells; assay: LH-stimulated testicular steroidogenesis in vitro (testis of treated rats incubated 3 hours, testosterone by RIA); assay type: in vivo, Brown Norway rat
Text: Male Brown Norway rats aged 3, 6, 12 (n=8 per group; 3M, 6M, and 12M, respectively), and 18 months (M) (n=32; 18M) were purchased from Harlan (Madison, Wis., United States of America). The 18M rats were divided equally into four groups (n=8 per group). Under deep inhalation anesthesia (METOFANE™; Malincroft Veterinary, Inc., Mundelein, Ill., United States of America), the four groups of 18M rats were implanted subdermally with ALZET™ mini-osmotic pumps (model 2ML4; Alza Corporation, Palo Alto, Calif., United States of America), containing saline (control), LH (24 μg/day; National Hormone and Pituitary Program, Los Angeles, Calif., United States of America), thyroxine (T4; 5 μg/day; Sigma, St. Louis, Mo., United States of America), and LH and T4 (LH+T4; two pumps, 24 […] of T4), respectively, for 4 weeks (to 19 months [19M] of age). […]
One testis of each rat in the 3M, 6M, 12M, and 19M age groups was removed, cleaned of fat, and weighed on a Mettler H54 balance to obtain the fresh testis weight. Using the flotation technique (Mendis-Handagama et al., (1988) Am. J. Anat. 181:12-22; Mori & Christensen, (1980) J. Cell. Biol. 84:340-354; and Mendis-Handagama & Ewing, (1990) J. Microsc. (Oxf) 159:73-82), the specific gravity of the fresh testis was determined as described previously (Mori & Christensen, (1980) J. Cell. Biol. 84:340-354 and Mendis-Handagama & Ewing, (1990) J. Microsc. (Oxford) 159:73-82), and the fresh testis volume was calculated by dividing the fresh testis weight by the specific gravity (in metric units, specific gravity equals density). […] Testosterone levels in the incubation medium were measured by RIA using commercially available kits (COAT-A-COUNT™), and the details of the assay are given above (see Laboratory Example 4). Testosterone-secretory capacity per Leydig cell was calculated by dividing the testosterone-secretory capacity per testis by the number of Leydig cells per testis. […]

[3] = tested on: testis of Brown Norway rats; assay: Microscopy and stereology of the testis of aged Brown Norway rats treated 4 weeks with LH, T4 or LH+T4; assay type: in vivo, Brown Norway rat
Text: Male Brown Norway rats aged 3, 6, 12 (n=8 per group; 3M, 6M, and 12M, respectively), and 18 months (M) (n=32; 18M) were purchased from Harlan (Madison, Wis., United States of America). The 18M rats were divided equally into four groups (n=8 per group). Under deep inhalation anesthesia (METOFANE™; Malincroft Veterinary, Inc., Mundelein, Ill., United States of America), the four groups of 18M rats were implanted subdermally with ALZET™ mini-osmotic pumps (model 2ML4; Alza Corporation, Palo Alto, Calif., United States of America), containing saline (control), LH (24 μg/day; National Hormone and Pituitary Program, Los Angeles, Calif., United States of America), thyroxine (T4; 5 μg/day; Sigma, St. Louis, Mo., United States of America), and LH and T4 (LH+T4; two pumps, 24 […] of T4), respectively, for 4 weeks (to 19 months [19M] of age). These doses of LH (Mendis-Handagama et al., (1998) Tissue Cell 30:64-73) and thyroid hormone (Ariyaratne et al., (2000) Biol. Reprod. 63:1115-1123) were used based on previously published studies. Rats were maintained under conditions of controlled temperature (25° C.) and lighting (14 hour/10 hour light/dark cycle) and were housed individually (one rat per cage). The animals were fed with Agway PROLAB™ rat formula (Agway, Syracuse, N.Y., United States of America) and water ad libitum until they were sacrificed. The animal protocol employed (No. 488) meets the guidelines of the National Institutes of Health and was approved by the University of Tennessee Animal Care and Concerns Committee.
Pumps were filled with either saline, LH, or T4, and were primed in saline for 3 hours before implantation so that they would deliver their contents immediately on subdermal implantation into the interscapular region. The LH+T4 rats received two pumps each, one containing LH and one containing T4; the other rats received one pump containing either saline, LH, or T4. After 4 weeks of treatment, rats were sacrificed. In addition, implanted pumps were removed and examined to verify that they had delivered their contents as expected.
One testis of each rat in the 3M, 6M, 12M, and 19M age groups was removed, cleaned of fat, and weighed on a Mettler H54 balance to obtain the fresh testis weight. Using the flotation technique (Mendis-Handagama et al., (1988) Am. J. Anat. 181:12-22; Mori & Christensen, (1980) J. Cell. Biol. 84:340-354; and Mendis-Handagama & Ewing, (1990) J. Microsc. (Oxf) 159:73-82), the specific gravity of the fresh testis was determined as described previously (Mori & Christensen, (1980) J. Cell. Biol. 84:340-354 and Mendis-Handagama & Ewing, (1990) J. Microsc. (Oxford) 159:73-82), and the fresh testis volume was calculated by dividing the fresh testis weight by the specific gravity (in metric units, specific gravity equals density). This measurement is required to express Leydig cell numbers per testis, because numerical density is obtained as a number per unit volume of the testis. The testis was then decapsulated, and the entire testis was incubated for 3 hours in the same medium as described previously (Ariyaratne et al., (2000) Biol. Reprod. 63:1115-1123; Mendis-Handagama et al., (1998) Biol. Reprod. 59:351-357; Mendis-Handagama et al., (1990) J. Androl. 11:548-554; Ariyaratne et al., (2000) Biol. Reprod. 63:493-502; and Ariyaratne & Mendis-Handagama, (2000) Biol. Reprod. 62:158-168) to determine the LH-stimulated testosterone-secretory capacity per testis in vitro. Testosterone levels in the incubation medium were measured by RIA using commercially available kits (COAT-A-COUNT™), and the details of the assay are given above (see Laboratory Example 4). Testosterone-secretory capacity per Leydig cell was calculated by dividing the testosterone-secretory capacity per testis by the number of Leydig cells per testis. […]

[4] = tested on: Leydig cells; conditions: Leydig cells isolated from 60 days old rats, in vitro; cited from earlier work
[5] = molecular target: rat follicle stimulating hormone (FSH) (rat) (UniProt P11962); assay: RIA, rat LH kit (Amersham Pharmacia Biotech); cross-reactivity against rat LH as reference
[6] = molecular target: rat adenocorticotropic hormone (ACTH) (rat) (UniProt P01194); assay: as above
[7] = molecular target: rat TSH (rat) (UniProt P11962); assay: as above
[8] = molecular target: rat growth hormone (rat) (UniProt P01244); assay: as above
[9] = molecular target: rat prolactin (rat) (UniProt P01237); assay: as above
[10] = 19M Brown Norway rats after 4 weeks subdermal osmotic pump (LH 24 μg/day, T4 5 μg/day), mean, n=8

UniProt P01237, sequence (P01237 30-226 limits assumed): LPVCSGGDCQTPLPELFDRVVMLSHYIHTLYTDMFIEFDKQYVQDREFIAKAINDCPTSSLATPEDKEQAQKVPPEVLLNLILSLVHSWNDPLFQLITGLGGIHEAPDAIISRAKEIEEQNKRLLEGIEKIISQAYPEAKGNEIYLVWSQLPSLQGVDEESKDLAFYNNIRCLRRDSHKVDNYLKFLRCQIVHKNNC
UniProt P01244, sequence (P01244 27-216 limits assumed): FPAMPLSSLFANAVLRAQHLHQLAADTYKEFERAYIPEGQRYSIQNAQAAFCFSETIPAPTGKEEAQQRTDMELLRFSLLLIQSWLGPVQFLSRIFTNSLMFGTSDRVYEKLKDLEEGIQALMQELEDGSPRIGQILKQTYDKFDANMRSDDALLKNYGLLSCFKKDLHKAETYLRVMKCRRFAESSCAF
UniProt P01194, sequence (P01194 124-162 limits assumed): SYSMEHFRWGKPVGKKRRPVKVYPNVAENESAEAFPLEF

- Serum LH levels, comparison between groups in words ([1]; 19M treated rats versus 3M through 12M rats): reduced significantly
Compound: N[C@@H](Cc1cc(I)c(Oc2cc(I)c(O)c(I)c2)c(I)c1)C(=O)O [T4, L-3,5,3′,5′-tetraiodothyronine]
- Mean Serum Testosterone [1, 10]: 73 ng/dL
- Serum testosterone levels, comparison between groups in words ([1]; 19M treated rats versus 19M controls and younger rats, P<0.05): significantly greater than 19M controls; also recorded: significantly lower than those in 3M through 12M rats; also recorded: not sufficient to upgrade the serum testosterone levels in 19M rats to those of 3M and 6M rats
- LH-stimulated testosterone-secretory capacity per testis and per Leydig cell in vitro, comparison between groups in words ([2]; 19M treated rats versus younger rats): comparable to those in 12M rats
- Mean Testosterone-Secretory Capacity Per testis ([2]; LH-stimulated, in vitro, 3 hours incubation, testis of 19M rats treated 4 weeks (LH 24 μg/day, T4 5 μg/day), mean, n=8): 14,748 ng
- Mean Testosterone-Secretory Capacity Per Leydig cell ([2]; LH-stimulated, in vitro, capacity per testis divided by number of Leydig cells per testis, 19M rats treated 4 weeks): 0.67 pg
- Average volume of a Leydig cell [3, 10]: 1998 μm^3
- Leydig cell number per Testis [3, 10]: 21.80 10^6
- Volume density of Leydig cells [3, 10]: 2.38%
- Absolute volume of Leydig cells per testis, comparison between groups in words ([3]; 19M treated rats versus 19M control and younger rats, P<0.05): higher values compared to 19M control rats; also recorded: not significantly different from those of 12M rats
- Average volume of a Leydig cell, comparison between groups in words ([3]; 19M treated rats versus younger rats, P<0.05): significantly lower than those in 3M and 6M rats; also recorded: partially effective
- Size of Leydig cell profiles in tissue sections ([3]; light microscopy, 19M treated rats versus 19M control rats): much larger than those in 19M control rats
- Mean Absolute Volume of Leydig cells ([3]; per testis, 19M Brown Norway rats after 4 weeks subdermal osmotic pump (LH 24 μg/day, T4 5 μg/day), mean, n=8): 43.57 mm^3

Compound: N[C@@H](Cc1cc(I)c(Oc2ccc(O)c(I)c2)c(I)c1)C(=O)O [T3, L-3,5,3′-triiodothyronine]
- Effect on testosterone secretion of Leydig cells [4]: increased testosterone secretion of Leydig cells in a dose dependent fashion up to 50 ng
- Minimum effective dose for testosterone production [4]: 25 ng

- cross-reactivity [5]: < 0.016%
- cross-reactivity [6]: < 0.00092%
- cross-reactivity [7]: 0.66%
- cross-reactivity [8]: 0.1%
- cross-reactivity [9]: < 0.8%
Compound: antibody for LH of the commercially available rat luteinizing hormone (rLH) RIA kit (Amersham Pharmacia Biotech)

— patent US7595056B1, “Methods of rejuvenating Leydig cells and enhancing testosterone production in a male subject” (University of Tennessee Research Foundation, priority 2002, dated 2009)
